Reference: the supplement of paper PMC10307832

Legend:
Experiment in all cases: relative viability (nuclei count vs DMSO), 5 days (fraction); higher = more cells survive
[1] = compound: CC(=O)c1c(C)c2cnc(Nc3ccc(N4CCNCC4)cn3)nc2n(C2CCCC2)c1=O [Palbociclib] + CC(C)C[C@H](NC(=O)[C@H](Cc1ccccc1)NC(=O)c1cnccn1)B(O)O [Bortezomib] (partner 0.002 µM)
Summary of the method: (§1)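 Relative viability was taken as the ratio of nuclei in treated wells to nuclei in vehicle wells. Lung cancer cell lines in 1536-well plates received compounds by pin tool one day after seeding, either one drug alone or a fixed anchor-drug dose plus five library-drug doses (not always all listed) in √10 steps. Nuclei were counted on 4× images after 5 days of treatment, and values are medians of duplicate plates.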

[2] = compound: CC(=O)c1c(C)c2cnc(Nc3ccc(N4CCNCC4)cn3)nc2n(C2CCCC2)c1=O [Palbociclib] + CS(=O)(=O)N1CCN(Cc2cc3nc(-c4cccc5[nH]ncc45)nc(N4CCOCC4)c3s2)CC1 [Pictilisib] (partner 1 µM)
Summary of the method: as §1

[3] = compound: CC(=O)c1c(C)c2cnc(Nc3ccc(N4CCNCC4)cn3)nc2n(C2CCCC2)c1=O [Palbociclib] + C[C@@H](Oc1cc(-c2cnn(C3CCNCC3)c2)cnc1N)c1c(Cl)ccc(F)c1Cl [Crizotinib] (partner 1 µM)
Summary of the method: as §1

[4] = compound: CC(=O)c1c(C)c2cnc(Nc3ccc(N4CCNCC4)cn3)nc2n(C2CCCC2)c1=O [Palbociclib] + Cc1nc(NC(=O)N2CCC[C@H]2C(N)=O)sc1-c1ccnc(C(C)(C)C(F)(F)F)c1 [Alpelisib] (partner 2 µM)
Summary of the method: as §1

Cell Line	relative viability ([1]; first compound 0.01 µM)	relative viability ([1]; first compound 0.03162 µM)	relative viability ([1]; first compound 0.1 µM)	relative viability ([1]; first compound 0.3162 µM)	relative viability ([1]; first compound 1 µM)	relative viability ([2]; first compound 0.01 µM)	relative viability ([2]; first compound 0.03162 µM)	relative viability ([2]; first compound 0.1 µM)	relative viability ([2]; first compound 0.3162 µM)	relative viability ([2]; first compound 1 µM)	relative viability ([3]; first compound 0.01 µM)	relative viability ([3]; first compound 0.03162 µM)	relative viability ([3]; first compound 0.1 µM)	relative viability ([3]; first compound 0.3162 µM)	relative viability ([3]; first compound 1 µM)	relative viability ([4]; first compound 0.01 µM)	relative viability ([4]; first compound 0.03162 µM)	relative viability ([4]; first compound 0.1 µM)	relative viability ([4]; first compound 0.3162 µM)	relative viability ([4]; first compound 1 µM)
LU99A	0.976	0.935	1	1.09	0.67	0.328	0.287	0.239	0.236	0.225	0.636	0.559	0.496	0.428	0.389	0.539	0.432	0.425	0.39	0.33
LXF-289	0.997	0.933	0.971	0.852	0.677	0.752	0.807	0.642	0.69	0.474	0.747	0.811	0.782	0.684	0.612	0.99	0.988	1.01	0.923	0.767
NCI-H23	1.12	–	0.87	0.703	0.553	0.575	–	0.362	0.36	0.205	0.613	–	0.436	0.458	0.428	0.705	–	0.585	0.588	0.432
NCI-H322M	1.27	1.07	1.07	1.01	0.785	0.474	0.495	0.459	0.393	0.34	0.949	0.883	0.858	0.813	0.697	0.805	0.895	0.689	0.676	0.496
NCI-H441	–	0.365	0.446	0.558	0.367	0.559	0.317	0.406	0.304	0.191	0.685	0.593	0.474	0.546	0.433	–	0.635	0.677	0.426	0.418
NCI-H460	1.11	0.937	0.909	0.745	0.172	0.465	0.302	0.268	0.318	0.182	0.938	0.781	0.581	0.582	0.205	0.476	0.413	0.275	0.217	0.0996
NCI-H520	0.496	0.496	0.35	0.403	0.236	0.283	0.201	0.229	0.213	0.229	0.748	0.551	0.648	0.641	0.337	0.855	0.749	0.503	0.552	0.431
NCI-H596	1.06	0.984	0.998	1.01	1.04	0.379	0.422	0.385	0.397	0.387	0.98	0.905	0.986	1.05	0.973	0.555	0.462	0.498	0.477	0.525
NCI-H647	0.963	0.814	0.696	0.851	0.472	0.423	–	0.275	0.307	0.278	0.947	0.809	0.759	0.735	0.462	1.33	0.986	0.979	1.02	0.532
NCI-H650	0.912	–	0.61	0.637	0.377	1.02	–	0.364	0.659	0.489	0.619	–	0.446	0.58	0.475	1.24	–	0.79	0.775	0.624
NCI-H661	0.874	0.584	0.588	0.649	0.521	0.407	0.409	0.379	0.3	0.251	0.957	0.779	0.674	0.694	0.556	0.92	0.686	0.583	0.382	0.508
NCI-H727	0.963	0.649	0.491	0.465	0.469	0.401	0.287	0.258	0.318	0.239	0.78	0.642	0.45	0.41	0.404	0.579	0.425	0.348	0.335	0.326
NCI-H838	0.725	0.8	0.67	0.694	0.275	0.393	0.329	0.307	0.348	0.197	0.795	0.808	0.645	0.551	0.413	1.03	0.918	0.829	0.883	0.441
NCI-H1299	1	0.871	0.925	0.873	0.72	0.762	0.486	0.541	0.347	0.259	0.938	0.895	0.86	0.7	0.631	1	1.02	0.949	0.956	0.865
NCI-H1355	1.14	–	1.17	1.01	0.723	0.449	–	0.23	0.273	0.241	1.13	–	0.886	0.875	0.682	0.823	–	0.797	0.779	0.501
NCI-H1437	0.525	0.533	0.442	0.408	0.318	0.424	0.38	0.366	0.317	0.162	1.05	0.855	0.807	0.782	0.506	0.946	1.06	0.857	0.889	0.48
NCI-H1563	0.824	0.98	0.869	0.796	0.577	0.668	0.614	0.555	0.618	0.613	0.852	0.832	0.813	0.759	0.67	0.896	0.887	0.897	0.808	0.765
